Data set [1] has as its system intracellular esterases. Kind of data set: Relative stability and cleavage by intracellular esterases. From the text:
Chemically reactive enzyme substrate compounds will covalently attach to a corresponding functional group of cell components, forming the complexes of enzyme substrates-cell components or enzyme products-cell components. Using enzyme substrate compounds to label reactive sites on the surface of cells, in cell membranes or in intracellular compartments such as organelles, or in the cell's cytoplasm, permits the determination of their presence or quantity, accessibility, or their spatial and temporal distribution in the sample. […] Photoreactive enzyme substrates can be used similarly to photolabel components of the outer membrane of biological cells or as photo-fixable polar tracers for cells.

In data set [2] the test system is CPA cells. Kind of data set: Absorption and emission spectra of cell lysates after incubating cells with the substrate. Particulars: CPA cells incubated with compound (5 μM) for 1 h, lysed with 1% Triton X-100; pH=9.0 buffer. It counts as cell-based. As for the experimental part:
CPA cells are incubated with Compound ES1 (5 μM) for 1 h, and lysed with 1% Triton® X-100. The cell lysates from the enzymatic hydrolysis of Compound ES1 have a maximum absorption around 409 nm, which matches very well the 405 nm violet laser excitation of a typical flow cytometer.
CPA cells are incubated with Compound ES7 (5 μM) for 1 h, and lysed with 1% Triton® X-100. The cell lysates from the enzymatic hydrolysis of ES7 have a maximum absorption around 416 nm, which matches very well the 405 nm violet laser excitation of a typical flow cytometer.

For data set [3], the system named is Jurkat cells. In words: Flow cytometric monitoring of cell proliferation after dye loading. In kind it is cell-based. Conditions: Jurkat cells loaded with 5 μM dye loading solution at 37° C. for 1 hour; flow cytometric analysis. The procedure:
Compound ES 9 is dissolved in anhydrous DMSO to make 5 mM stock solution, and diluted in PBS buffer to make 5 μM dye loading solution. Jurkat cells are loaded with the dye loading solution of Compound ES9 at 37° C. for 1 hour. The cells are washed with PBS buffer to remove serum. The resulted cells are cultured and passed for flow cytometric analysis as desired. Compound ES9 is used to monitor cell proliferation of nine passages.
ES compounds are retained by cells and shared by the daughter cells at each division, resulting in multimodal flow cytometric ES staining histograms, with each cell generation clustering around half the fluorescence intensity of the previous one. ES compounds are dissolved in anhydrous DMSO, and the stock solutions are used promptly. To prepare the cell working solutions (from 1 to 100 μM) the DMSO stock solutions of ES compounds are diluted with Hanks and 20 mM Hepes buffer (HHBS, pH 7 with 0.02% PF-127). The Jurkat cells are treated with test compounds for a desired period of time, and centrifuged give 1-5×10^5 cells per tube. The cells are resuspended in 500 μL of the ES compound working solutions, and incubated at room temperature or 37° C. for 5 to 10 min. […] The fluorescence of ES compound staining are monitored at Ex/Em=405/450 nm, 405/500 nm or 405/550 nm with a fluorescence microscope or a flow cytometer.

Consider `CC(=O)Oc1cc2oc(=O)c(-c3ccc(CCCCCC(=O)ON4C(=O)CCC4=O)s3)cc2cc1Cl` [Compound 9], for which the “stability relative to Compound ES 18” value in data set [1] is on record as “more stable than Compound ES 18”.
Still for that read-out and setting: for `CC(=O)Oc1cc2oc(=O)c(-c3ccc(CCCCCC(=O)NCCN4C(=O)C=CC4=O)s3)cc2cc1Cl` [Compound 10] the value was “more stable than Compound ES 18”.
Consider `CC(=O)Oc1cc2oc(=O)c(C(=O)ON3C(=O)CCC3=O)cc2cc1Cl` [ES1], for which the “stability relative to Compound ES 18” value in data set [1] is “more stable than Compound ES 18”. Besides, in data set [2], the “maximum absorption of cell lysates from the enzymatic hydrolysis” value is “around 409 nm”.
With `CC(=O)Oc1c(Cl)cc2cc(C(=O)NCCCCCN3C(=O)C=CC3=O)c(=O)oc2c1F` [ES7], the “maximum absorption of cell lysates from the enzymatic hydrolysis” value in data set [2] was “around 416 nm”.
For the compound `CC(=O)OCOc1c(Cl)cc2cc(C(=O)ON3C(=O)CCC3=O)c(=O)oc2c1Cl` [Compound 5], the “stability relative to Compound ES 18” value in data set [1] is “more stable than Compound ES 18”.
Regarding `CC(=O)Oc1cc2oc(=O)c(-c3ccc(CCCCCC(=O)ON4C(=O)CCC4=O)s3)cc2cc1Cl` [ES9], the “passages over which cell proliferation is monitored” value in data set [3] was “nine”.
For `CC(=O)Oc1c(F)cc2cc(C(=O)ON3C(=O)CCC3=O)c(=O)oc2c1F` [ES18], the “cleavage by intracellular esterases” value in data set [1] was “cleaved by intracellular esterases more slowly”.
